Results from patent US12336981B2, “Compounds and compositions for the inhibition of NAMPT” (Valo Health, Inc., priority 2010, dated 2025).
Counter-ions that a name gives are not always drawn. Like-named read-outs stand apart in the source and are kept apart here.

Experiments:
U251 cells = assay: In-vitro cell proliferation assay (SRB), U251 cells; assay type: cell-based; details: Homo sapiens, U-251, 72 hours
Procedure: After overnight incubation at 37° C. and 5% CO2, the compound titrations were performed in a separate dilution plate by serially diluting the compounds in DMSO to make a 1000× stock. The compounds were then further diluted to 10× final concentration in culture media, whereupon 20 μL of each dilution was added to the plated cells with controls (e.g. DMSO and blank) to make a final volume of 5 200 μL. The final DMSO concentration in each well was 0.1%. The plates were then incubated for 72 hours at 37° C. in a 5% CO2 incubator. The number of viable cells was then assessed using sulforhodamine B (SRB) assay. Cells were fixed at 4° C. for 1 hour with the addition of 50 μL 30% trichloroacetic acid (TCA) to make a final concentration of 6% 10 TCA. The plates were washed four times with H2O and allowed to dry for at least 1 hour, whereupon 100 μL of a 4% SRB in 1% acetic acid solution was added to each well and incubated at room temperature for at least 30 minutes. The plates were then washed three times with 1% acetic acid, dried, and treated with 100 μL of 10 mM Tris-Base solution. The plates were then read in a microplate reader at an absorbance of 570 nm. 15 Background was generated on a separate plate with media only. Method for Determining % Inhibition First, the signals from the background plate are averaged, then the background was subtracted from the test plates.

NAMPT = biological target: T1, NAMPT (Homo sapiens, UniProt P43490); assay: Biochemical inhibition assay: NAMPT enzymatic reaction, NMN quantified by mass spectrometry; details: read-out: Biochem IC50
T1 construct: His tag; host or cells: E. coli
T1 sequence (P43490 whole entry): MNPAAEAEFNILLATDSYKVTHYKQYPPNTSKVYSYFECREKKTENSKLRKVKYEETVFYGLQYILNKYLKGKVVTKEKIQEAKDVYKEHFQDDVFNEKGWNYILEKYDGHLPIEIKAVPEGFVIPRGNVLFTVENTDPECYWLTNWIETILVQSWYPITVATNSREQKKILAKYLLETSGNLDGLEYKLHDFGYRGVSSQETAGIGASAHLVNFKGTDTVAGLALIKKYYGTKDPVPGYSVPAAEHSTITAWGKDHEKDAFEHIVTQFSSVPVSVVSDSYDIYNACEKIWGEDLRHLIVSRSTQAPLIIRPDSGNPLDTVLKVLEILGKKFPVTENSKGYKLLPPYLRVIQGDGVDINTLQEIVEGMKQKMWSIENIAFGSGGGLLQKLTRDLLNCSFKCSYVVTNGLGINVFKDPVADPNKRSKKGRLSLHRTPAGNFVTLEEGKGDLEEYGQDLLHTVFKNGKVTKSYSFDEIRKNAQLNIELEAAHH
Summary of the method: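 Inhibition of E. coli-expressed His-tagged human NAMPT, measured as NMN formation by mass spectrometry after a 30 min room-temperature reaction containing 1 μM NAM, 100 μM PRPP and 2.5 mM ATP.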

A2780 cells [1] = assay: In-vitro cell proliferation assay (SRB), A2780 cells; assay type: cell-based; details: Homo sapiens, A2780, 72 h, A2780 cells, 72 hours, read-out: A2780 IC50
Summary of the method: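 Viable cells measured by SRB staining after 6% TCA fixation, absorbance 570 nm. Media-only background subtracted; % inhibition derived at two compound concentrations.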

A2780 cells [2] = assay: Xenograft studies: A2780 tumors s.c. in C.B-17-Igh-1b-Prkdc scid mice; assay type: in vivo; details: female scid mice, p.o. BID for 5 or 10 days, dose selected from MTD study
Procedure: C.B-17-Igh-1b-Prkdc^scid mice (female) were injected s.c. with 5×10^6 A2780 cells (NCI) in the left flank. 10-12 days later when tumors reached 100-200 mm3 in size, mice were randomized into treatment groups of 8 mice per group including vehicle control and reference standard groups. The compounds were formulated in 60:30:10 PEG-400: D5W: Ethanol and administered p.o., at the dose volume of 10 ml/kg BID for a duration of 5 or 10 days. The dose used for efficacy was selected from the MTD (Maximum Tolerated Dose) study. Mice were weighed and tumors measured using vernier calipers every alternate day. Tumor volume was calculated according to the formula (length×width^2)/2. All animal work was approved by the Institutional Animal Care and Use Committee of Biological Resource Centre, Singapore.

SMILES	IC50 (U251 cells) [nM]	IC50 (NAMPT; NAMPT enzymatic reaction) [nM]	IC50 (A2780 cells [1]; SRB) [nM]	IC50 (NAMPT; NAMPT enzymatic assay) [nM]	also measured
O=C(NCc1ccc(S(=O)(=O)c2ccccc2)cc1)c1ccc2cncn2c1 [N-{[4-(benzenesulfonyl)phenyl]methyl}imidazo[1,5-alpyridine-6-carboxamide]	> 2000				
O=C(NCc1ccc(S(=O)(=O)c2ccccc2)cc1)c1cc2ccncc2s1 [N-{[4-(benzenesulfonyl)phenyl]methyl}thieno[2,3-c]pyridine-2-carboxamide]		11			IC50 (A2780 cells [1]; SRB assay): 12 nM; Effect on tumor in A2780 xenograft (A2780 cells [2]): tumor regression
O=C(NCc1ccc(S(=O)(=O)c2cccc(Cl)c2)cc1)c1cc2cnccc2[nH]1 [N-({4-[(3-chlorobenzene)sulfonyl]phenyl}methyl)-1H-pyrrolo[3,2-c]pyridine-2-carboxamide]		5			IC50 (A2780 cells [1]; SRB assay): 3 nM; Effect on tumor in A2780 xenograft (A2780 cells [2]): tumor regression
NC1CCN(S(=O)(=O)c2ccc(CNC(=O)c3cc4ccncc4s3)cc2)C1 (centres unmarked) [N-{[4-(3-aminopyrrolidine-1-sulfonyl)phenyl]methyl}thieno[2,3-c]pyridine-2-carboxamide hydrochloride]	310				
O=C(NCc1ccc(S(=O)(=O)c2ccccc2)nc1)c1cc2cnccc2[nH]1 [N-{[6-(benzenesulfonyl)pyridin-3-yl]methyl}-1H-pyrrolo[3,2-c]pyridine-2-carboxamide]	> 2000				
O=C(NCc1ccc(S(=O)(=O)N2CCNCC2)cc1)c1cc2ccncc2s1 [N-{[4-(pipcrazine-1-sulfonyl)phenyl]methyl}thieno[2,3-c]pyridine-2-carboxamide]	405				
O=C(NCc1ccc(S(=O)(=O)c2ccccc2)cc1)c1ccc2nccn2c1 [N-{[4-(benzenesulfonyl)phenyl]methyl}imidazo[1,2-a]pyridine-6-carboxamide]		21			IC50 (A2780 cells [1]; SRB assay): 11 nM; Effect on tumor in A2780 xenograft (A2780 cells [2]): tumor regression
O=C(NCc1ccc([S+]([O-])c2cc(F)cc(F)c2)cc1)c1ccc2nccn2c1 (centres unmarked) [N-({4-[(3,5-difluorobenzene)sulfinyl]phenyl}methyl)imidazo[1,2-a]pyridine-6-carboxamide]	6.6				
O=C(NCc1ccc(S(=O)(=O)c2ccc(F)cc2)cc1)c1cc2cnccc2[nH]1 [N-({4-[(4-fluorobenzene)sulfonyl]phenyl}methyl)-1H-pyrrolo[3,2-c]pyridine-2-carboxamide]		38			IC50 (A2780 cells [1]; SRB assay): 8 nM; Effect on tumor in A2780 xenograft (A2780 cells [2]): tumor regression
O=C(NCc1ccc(S(=O)(=O)c2ccccc2)cc1)c1cc2ncccc2o1 [N-{[4-(benzenesulfonyl)phenyl]methyl}furo[3,2-b]pyridine-2-carboxamide]	545				
NC1CCN(S(=O)(=O)c2ccc(CNC(=O)c3cc4ccncc4o3)cc2)C1 (centres unmarked) [N-{[4-(3-aminopyrrolidine-1-sulfonyl)phenyl]methyl}furo[2,3-c]pyridine-2-carboxamide hydrochloride]	1850				
O=C(NCc1ccc(S(=O)(=O)c2cccnc2)cc1)c1cc2cnccc2[nH]1 [N-{[4-(pyridine-3-sulfonyl)phenyl]methyl}-1H-pyrrolo[3,2-c]pyridine-2-carboxamide]		21			IC50 (A2780 cells [1]; SRB assay): 48 nM; Effect on tumor in A2780 xenograft (A2780 cells [2]): delayed tumor growth
O=C(NCc1ccc(S(=O)(=O)N2CCNCC2)cc1)c1ccc2nccn2c1 [N-{[4-(piperazine-1-sulfonyl)phenyl]methyl}imidazo[1,2-a]pyridine-6-carboxamide]	556				
O=C(NCc1ccc(S(=O)(=O)c2ccccc2)cn1)c1cc2cnccc2[nH]1 [N-{[5-(benzenesulfonyl)pyridin-2-yl]methyl}-1H-pyrrolo[3,2-c]pyridine-2-carboxamide]	35				
O=C(NCc1ccc(S(=O)(=O)c2ccccc2)cc1)c1cc2ncccc2s1 [N-{[4-(benzenesulfonyl)phenyl]methyl}thieno[3,2-b]pyridine-2-carboxamide]	> 2000				
Cc1cccc(S(=O)(=O)c2ccc(CNC(=O)c3ccc4nccn4c3)cc2)c1 [N-({4-[(3-methylbenzene)sulfonyl]phenyl}methyl)imidazo[1,2-a]pyridine-6-carboxamide]		8.12	6.39		
O=C(NCc1ccc(S(=O)(=O)c2ccccc2)cc1)c1cn2ccnc2cn1 [N-{[4-(benzenesulfonyl)phenyl]methyl}imidazo[1,2-alpyrazinc-6-carboxamide]	> 2000				

SMILES	IC50 (U251 cells) [nM]	IC50 (NAMPT; NAMPT enzymatic reaction) [nM]	IC50 (A2780 cells [1]; SRB) [nM]	IC50 (NAMPT; NAMPT enzymatic assay) [nM]	also measured
CN1CCN(c2ccc(S(=O)(=O)c3ccc(CNC(=O)c4cc5ccncc5o4)cc3)cc2)CC1			0.5	1	
COc1ccc(F)cc1NS(=O)(=O)c1ccc(CN/C(=N\C#N)Nc2ccncc2)cc1 [(E)-2-cyano-3-({4-[(5-fluoro-2-methoxyphenyl)sulfamoyl]phenyl}methyl)-1-(pyridin-4-yl)guanidine]		1.1	3		
Cn1ncc(S(=O)(=O)c2ccc(CNC(=O)c3cnc4[nH]ncc4c3)cc2)c1C(F)(F)F [N-({4-[1-methyl-5-(trifluoromethyl)-1H-pyrazole-4-sulfonyl]phenyl}methyl)-1H-pyrazolo[3,4-b]pyridine-5-carboxamide]			43.4	53.4	
O=C(NCc1ccc(S(=O)(=O)CCCCc2ccccc2)cc1)c1cc2cnccc2[nH]1 [N-({4-[(4-phenylbutane)sulfonyl]phenyl}methyl)-1H-pyrrolo[3,2-c]pyridine-2-carboxamide]		216	71.5		
Cc1nc(C)c(S(=O)(=O)c2ccc(CNC(=O)c3cc4ccncc4s3)cc2)s1 [N-{[4-(dimethyl-1,3-thiazole-5-sulfonyl)phenyl]methyl}thieno[2,3-c]pyridine-2-carboxamide]			3	1.3	
O=C(NCc1ccc(S(=O)(=O)c2cccc3ccsc23)cc1)c1cc2ccncc2o1 [N-{[4-(1-benzothiophene-7-sulfonyl)phenyl]methyl}furo[2,3-c]pyridine-2-carboxamide]			13.9	4.9	
O=C(NCc1ccc(S(=O)(=O)c2ccc(C(F)(F)F)c(Cl)c2)cc1)c1cnc2nccn2c1			1.8	2.8	
O=C(NCc1ccc(S(=O)(=O)c2ccc3nc(C(F)(F)F)cn3c2)cc1)c1cnc2[nH]ncc2c1 [N-({4-[2-(trifluoromethyl)imidazo[1,2-a]pyridine-6-sulfonyl]phenyl}methyl)-1H-pyrazolo[3,4-b]pyridine-5-carboxamide]			33	49.7	
O=C(NCc1ccc(S(=O)(=O)c2cccc(N3CCOCC3)c2)cc1)c1cc2ccncc2o1			5.6	5	
O=C(NCc1ccc(S(=O)(=O)c2cccc(N3CCOCC3)c2)cc1)c1cc2cc(O)ccc2[nH]1		100 to 1000	1000 to 10000		
O=C(NCc1ccc(S(=O)(=O)c2cc(C(F)(F)F)ccn2)cc1)c1cnc2[nH]ncc2c1 [N-({4-[4-(trifluoromethyl)pyridine-2-sulfonyl]phenyl}methyl)-1H-pyrazolo[3,4-b]pyridine-5-carboxamide]			11.8	28.3	
O=C(NCc1ccc(S(=O)(=O)c2cccc3cccnc23)cc1)c1ccc2nccn2c1 [N-{[4-(quinoline-8-sulfonyl)phenyl]methyl}imidazo[1,2-a]pyridine-6-carboxamide]			5.5	9.8	
O=C(NCc1ccc(S(=O)(=O)c2ccc(Cl)c(C(F)(F)F)c2)cc1)c1cc2cnccc2[nH]1 [N-[(4-{[4-chloro-3-(trifluoromethyl)benzene]sulfonyl}phenyl)methyl]-1H-pyrrolo[3,2-c]pyridine-2-carboxamide]		8			IC50 (A2780 cells [1]; SRB assay): 5 nM
COc1c(Cl)ccc(S(=O)(=O)c2ccc(CNC(=O)c3cnc4nccn4c3)cc2)c1Cl		6.6	25.5		
O=C(NCc1ccc(S(=O)(=O)c2ccc(C(F)(F)F)cc2C(F)(F)F)cc1)c1ccc2nccn2c1			53.2	220	
Cn1cnc2ccc(S(=O)(=O)c3ccc(CNC(=O)c4cnc5nccn5c4)cc3)cc21 [N-{[4-(1-methyl-1H-1,3-benzodiazole-6-sulfonyl)phenyl]methyl}imidazo[1,2-a]pyrimidine-6-carboxamide]			33.8	4	
O=C(NCc1ccc(S(=O)(=O)c2ccc(C(F)(F)F)cc2C(F)(F)F)cc1)c1cc2ccncc2o1			63.7	53	
